Patent US20090227606A1, “Methods for Preventing or Treating Acute and Chronic Pain” (priority 2006, published 2009)
Entries after “also recorded” stand apart in the source; their conditions may differ.

Columns and labels:
GLT-1 = assay: Immunohistochemistry of rat lumbar spinal cord, GLT-1; assay type: in vivo; settings: day 12 post-transection, ipsilateral vs contralateral
Description: (§1) For assessment of GFAP, GLT-1 and GLAST immunoreactivity, a separate group of rats (n=4/treatment) were anesthetized and transcardially perfused with 0.1 M PBS (phosphate-buffered saline), pH 7.4, followed by 4% paraformaldehyde in PBS on day 12 post-L5 spinal nerve transection. Lumbar spinal cord sections were identified, isolated, and processed as described previously (Colburn, R. W. et al. 1997. J. Neuroimmunol. 79:163-175). Free-floating, […] were cut in a cryostat and processed for immunofluorescence. Sections were blocked with 5% FBS/0.1% Triton-X 100 for 1 hour at room temperature (RT). For double immunofluorescence, spinal sections were incubated with a mixture of rabbit polyclonal anti-GLT-1 (1:500) or guinea pig anti-GLAST (1:5000, Chemicon, Temecula, Calif.), and mouse anti-GFAP G-A-5 (astrocyte marker, 1:400, Sigma Chemical Co., St. Louis, Mo.) in 3% FBS/0.1% triton-X 100/TBS over night at 4° C., washed, incubated in a mixture of goat anti-rabbit Alexa Fluor™-555 and goat anti-mouse Alexa Fluor™-488 (1:250, Molecular Probes, Eugene, Oreg.) secondary antibodies in 3% FBS/0.1% triton-X 100/TBS for 1 hour at RT. To control for nonspecific staining, control sections were incubated in the absence of primary antibodies. The sections were examined with a fluorescence microscope, and images were captured with a Q-Fire cooled camera. […]

GLAST [1] = assay: Western blot of cultured astrocytes, GLAST protein; assay type: cell-based, rat
Description: After approximately 14 days (2 days after subplating into plates, DIV 14) astrocytes had formed a confluent monolayer. […] Phase contrast microscopy was then carried out in order to assess the morphology of cells after the various treatments. Length of astrocyte processes was quantified by measuring all processes in 2-3 phase contrast images/group by an independent observer, blinded to the treatment groups using Image J v1.34s (National Institutes of Health, Bethesda, Md.).
Cells were scraped into PBS containing a protease inhibitor cocktail (1:1000, Sigma Chemical Co., St. Louis, Mo.) and then lysed by sonication in 5 one-second pulses. The samples were stored at −80° C. until use. Total protein was determined using the Lowry method (DC assay, Bio-Rad, Hercules, Calif.). Forty micrograms of protein (diluted in sample buffer and boiled) and standard protein markers were subjected to SDS/7.5% polyacrylamide gel electrophoresis and transferred to polyvinylidene difluoride (PVDF) membranes. Nonspecific binding was blocked by incubation with 5% milk/PBS-Tween at room temperature for 1 hour followed by incubation overnight at 4° C. with rabbit anti-GLT-1 (1:500) or guinea pig anti-GLAST (1:2500). The following day, blots were washed and incubated for 1 hour at room temperature with goat anti-rabbit HRP-conjugated secondary (1:3000) or goat anti-guinea pig HRP-conjugated secondary antibody (1:5000) and visualized with enhanced chemiluminescence (ECL). Images were obtained using the Typhoon Imaging System (Amersham-GE Healthcare, Piscataway, N.J.). Finally, blots were incubated for 15 minutes in stripping buffer and reprobed with a monoclonal mouse anti-β-actin antibody (1:10,000) as a loading control. Densitometric analysis was performed using ImageQuant 5.2 (Molecular Dynamics, GE Healthcare, Piscataway, N.J.).

GLAST [2] = assay: DsRed-GLAST-positive puncta in mouse spinal cord dorsal horn; assay type: in vivo
Description: With these in vivo data collected, further experiments were performed in the transgenic mice to more clearly define the effects of propentofylline treatment on GLT-1 and GLAST in the spinal cord. As discussed above, following in vivo testing, mice were transcardially perfused and tissue was fixed with paraformaldehyde. Lumbar spinal cord sections were identified and post-fixed in paraformaldehyde. After one week in sucrose to prevent freeze fracture, spinal cord segments were frozen in dry ice, mounted and prepared with cryostat sectioning. Sections were then subjected to immunohistochemical analysis. […] In order to quantitate the relative number of eGFP (marker for GLT-1) or DsRed (marker for GLAST) puncta in each spinal cord dorsal horn, images using a fluorescence microscope were taken with a Q-Fire cooled camera (397 ms exposure). […] An observer blind to the treatment groups was used to count the relative number of GLT-1 or GLAST positive puncta in the ipsilateral (injured) dorsal horn versus the contralateral (non-injured) dorsal horn. […]
As described previously with rats, mice were transcardially perfused with 0.1 M PBS (phosphate-buffered saline), pH 7.4, followed by 4%-paraformaldehyde in PBS on day 12 post-L5 spinal nerve transection. […] The sections were examined with a fluorescence microscope, and images were captured with a Q-Fire cooled camera. […]

GLAST [3] = assay: Immunohistochemistry of rat lumbar spinal cord, GLAST; assay type: in vivo; settings: day 12 post-transection, ipsilateral side
Description: as §1

CCCn1cnc2c1c(=O)n(CCCCC(C)=O)c(=O)n2C [propentofylline]
GLT-1 immunoreactivity in dorsal horn (GLT-1): no qualitative difference in GLT-1 between ipsilateral and contralateral dorsal horns
GLAST protein level, in words (GLAST [1]; 3 or 7 days, normalized to β-actin): dose-dependently increased levels of GLAST protein
increase in GLAST protein (GLAST [1]; 7-day treatment, 1000 μM): 6 fold
DsRed-GLAST-positive puncta in injured mice (GLAST [2]; L5/propentofylline vs L5/saline group, day 12): significantly enhanced the number of DsRed-GLAST-positive puncta; also recorded: increased the levels back to that seen in the contralateral side
DsRed-GLAST expression in sham mice (GLAST [2]; sham/propentofylline group): unaffected
GLAST immunoreactivity in dorsal horn (GLAST [3]): did not enhance GLAST immunoreactivity on the ipsilateral side
